System: C. albicans ATCC 64124 (strain B) biofilms
Assay: Antibiofilm activity by XTT reduction assay
Type: cell-based, Candida albicans
Conditions: Table 4, Ex.2
Method: Antibiofilm activity of synthetic compounds. Biofilms are complex functional communities of one or more species of microorganisms that are encased in extracellular polymeric substances and attached to both a solid surface and to each other. Being complex matrices, antifungal agents have difficulty reaching the pathogens embedded in these difficult-to-treat networks. The antibiofilm activity of compounds 7, 9, 20, 22, 25, and 26, as well as that of VOR were evaluated against biofilms of C. albicans ATCC 64124 (strain B) by XTT reduction assay (Table 4).

C[C@@H](c1ncncc1F)[C@](O)(Cn1cncn1)c1ccc(F)cc1F [VOR, voriconazole] was tested, and the SMIC50 (reduces metabolic activity of biofilms by 50%) was 62.5 µg/mL and the SMIC80 (reduces metabolic activity of biofilms by 80%) was 62.5 µg/mL.

Source: US12103916B2, “Antifungal compounds” (University of Kentucky Research Foundation, priority 2016, dated 2024)
